Assay results from US20260232767A1, “INTERLEUKIN-23 RECEPTOR ANTAGONIST PEPTIDES FOR USE IN THE TREATMENT OF PSORIASIS” (Janssen Pharmaceutica NV, priority 2023, published 2026).

System: subjects with moderate-to-severe plaque psoriasis
Assay: Safety, adverse events, Example 2 through Week 56
Assay type: in vivo, human
Settings: 100 mg QD
Source text: The LTE safety analysis was based on randomized participants in Example who entered the present long-term extension study and received at least one dose of study intervention (including a partial dose) during the study period.

CC(=O)NCCCC[C@@H]1NC(=O)[C@H](Cc2c[nH]c3c(C)cccc23)NC(=O)[C@H]([C@@H](C)O)NC(=O)[C@H](CC(N)=O)NC(=O)[C@@H](NC(C)=O)C(C)(C)SSC(C)(C)[C@@H](C(=O)N[C@@H](Cc2ccc(OCCN)cc2)C(=O)N[C@@H](Cc2ccc3ccccc3c2)C(=O)NC2(C(=O)N[C@@H](CCC(=O)O)C(=O)N[C@@H](CC(N)=O)C(=O)N[C@@H](Cc3cccnc3)C(=O)N(C)CC(N)=O)CCOCC2)NC1=O [IL-23 receptor antagonist peptide, Ac-[Pen]*-N-T-[W(7-Me)]-[Lys(Ac)]-[Pen]*-Phe[4-(2-aminoethoxy)]-[2-Nal]-[THP]-E-N-[3-Pal]-Sarc-NH2 (*[Pen]-[Pen]* formdisulfidebond)]
Subjects with treatment-emergent AE: Bronchitis (Week 16-56): 0 | Subjects with treatment-emergent AE: Meniscus injury (Week 16-56): 0 | Subjects with treatment-emergent AE: Sinusitis (Week 16-56): 0 | Subjects with treatment-emergent AE: Urinary tract infection (Week 16-56): 0 | Subjects with treatment-emergent serious AE: Cardiac disorders (Week 16-56): 0 | Subjects with treatment-emergent serious AE: Cerebrovascular accident (Week 16-56): 0 | Subjects with treatment-emergent serious AE: Coronary artery disease (Week 16-56): 0 | Subjects with treatment-emergent serious AE: Foot deformity (Week 16-56): 0 | Subjects with treatment-emergent serious AE: General disorders and administration site conditions (Week 16-56): 0 | Subjects with treatment-emergent serious AE: Injury, poisoning and procedural complications (Week 16-56): 0 | Subjects with treatment-emergent serious AE: Ligament injury (Week 16-56): 0 | Subjects with treatment-emergent serious AE: Neoplasms benign, malignant and unspecified (incl cysts and polyps) (Week 16-56): 0 | Subjects with treatment-emergent serious AE: Nervous system disorders (Week 16-56): 0 | Subjects with treatment-emergent serious AE: Non-cardiac chest pain (Week 16-56): 0 | Subjects with treatment-emergent serious AE: Respiratory, thoracic and mediastinal disorders (Week 16-56): 0 | Subjects with treatment-emergent serious AE: Tonsillar hypertrophy (Week 16-56): 0 | Subjects with treatment-emergent serious AE: Uterine leiomyoma (Week 16-56): 0 | Subjects with treatment-emergent serious AE: Ventricular dysfunction (Week 16-56): 0 | Acrochordon: % of subjects (through Week 56): (2.3%) | Acrochordon: number of subjects (through Week 56): 1 | Actinic keratosis: number of subjects (through Week 56): 0 | Alopecia: number of subjects (through Week 56): 0 | Asthenia: number of subjects (through Week 56): 0 | Asthma: % of subjects (through Week 56): (2.3%) | Asthma: number of subjects (through Week 56): 1 | Atrioventricular block first degree: % of subjects (through Week 56): (2.3%) | Atrioventricular block first degree: number of subjects (through Week 56): 1 | Basal cell carcinoma: number of subjects (through Week 56): 0 | Blood and lymphatic system disorders: number of subjects (through Week 56): 0 | Bronchitis chronic: % of subjects (through Week 56): (2.3%) | Bronchitis chronic: number of subjects (through Week 56): 1 | Bundle branch block right: number of subjects (through Week 56): 0 | Cardiac disorders: % of subjects (through Week 56): (2.3%) | Cardiac disorders: number of subjects (through Week 56): 1 | Chills: % of subjects (through Week 56): (2.3%) | Chills: number of subjects (through Week 56): 1 | Cholelithiasis: % of subjects (through Week 56): (2.3%) | Cholelithiasis: number of subjects (through Week 56): 1 | Chronic obstructive pulmonary disease: % of subjects (through Week 56): (2.3%) | Chronic obstructive pulmonary disease: number of subjects (through Week 56): 1 | Coronary artery disease: number of subjects (through Week 56): 0 | Cough: % of subjects (through Week 56): (7.0%) | Cough: number of subjects (through Week 56): 3 | Decreased appetite: number of subjects (through Week 56): 0 | Depression: % of subjects (through Week 56): (2.3%) | Depression: number of subjects (through Week 56): 1 | Dermal cyst: number of subjects (through Week 56): 0 | Dermatitis acneiform: number of subjects (through Week 56): 0 | Dermatitis contact: % of subjects (through Week 56): (2.3%) | Dermatitis contact: number of subjects (through Week 56): 1 | Diabetes mellitus: number of subjects (through Week 56): 0 | Diffuse alopecia: number of subjects (through Week 56): 0 | Dysuria: number of subjects (through Week 56): 0 | Ear and labyrinth disorders: % of subjects (through Week 56): (2.3%) | Ear and labyrinth disorders: number of subjects (through Week 56): 1 | Endocrine disorders: number of subjects (through Week 56): 0 | Eye disorders: number of subjects (through Week 56): 0 | Eyelid skin dryness: number of subjects (through Week 56): 0 | Fatigue: % of subjects (through Week 56): (2.3%) | Fatigue: number of subjects (through Week 56): 1 | General disorders and administration site conditions: % of subjects (through Week 56): (7.0%) | General disorders and administration site conditions: number of subjects (through Week 56): 3 | Goiter: number of subjects (through Week 56): 0 | Haemochromatosis: number of subjects (through Week 56): 0 | Hand dermatitis: number of subjects (through Week 56): 0 | Hematuria: number of subjects (through Week 56): 0 | Hepatobiliary disorders: % of subjects (through Week 56): (2.3%) | Hepatobiliary disorders: number of subjects (through Week 56): 1 | Hypercholesterolemia: % of subjects (through Week 56): (2.3%) | Hypercholesterolemia: number of subjects (through Week 56): 1 | Hyperglycemia: % of subjects (through Week 56): (2.3%) | Hyperglycemia: number of subjects (through Week 56): 1 | Hyperlipidemia: number of subjects (through Week 56): 0 | Hypertension: % of subjects (through Week 56): (2.3%) | Hypertension: number of subjects (through Week 56): 1 | Hypertransaminasemia: number of subjects (through Week 56): 0 | Hypertriglyceridemia: number of subjects (through Week 56): 0 | Hypoacusis: number of subjects (through Week 56): 0 | Immune system disorders: number of subjects (through Week 56): 0 | Influenza like illness: number of subjects (through Week 56): 0 | Insomnia: % of subjects (through Week 56): (2.3%) | Insomnia: number of subjects (through Week 56): 1 | Intertrigo: number of subjects (through Week 56): 0 | Ketonuria: number of subjects (through Week 56): 0 | Leukocyturia: % of subjects (through Week 56): (2.3%) | Leukocyturia: number of subjects (through Week 56): 1 | Leukopenia: number of subjects (through Week 56): 0 | Libido decreased: % of subjects (through Week 56): (2.3%) | Libido decreased: number of subjects (through Week 56): 1 | Liver disorder: number of subjects (through Week 56): 0 | Lymphopenia: number of subjects (through Week 56): 0 | Menopause: number of subjects (through Week 56): 0 | Metabolism and nutrition disorders: % of subjects (through Week 56): (4.7%) | Metabolism and nutrition disorders: number of subjects (through Week 56): 2 | Neoplasms benign, malignant and unspecified (incl cysts and polyps): % of subjects (through Week 56): (2.3%) | Neoplasms benign, malignant and unspecified (incl cysts and polyps): number of subjects (through Week 56): 1 | Nephrolithiasis: % of subjects (through Week 56): (2.3%) | Nephrolithiasis: number of subjects (through Week 56): 1 | Neutropenia: number of subjects (through Week 56): 0 | Night sweats: number of subjects (through Week 56): 0 | Non-cardiac chest pain: number of subjects (through Week 56): 0 | Ocular cyst: number of subjects (through Week 56): 0 | Oedema peripheral: % of subjects (through Week 56): (2.3%) | Oedema peripheral: number of subjects (through Week 56): 1 | Oropharyngeal pain: % of subjects (through Week 56): (2.3%) | Oropharyngeal pain: number of subjects (through Week 56): 1 | Procedural pain: number of subjects (through Week 56): 0 | Productive cough: number of subjects (through Week 56): 0 | Proteinuria: number of subjects (through Week 56): 0 | Pruritus: % of subjects (through Week 56): (2.3%) | Pruritus: number of subjects (through Week 56): 1 | Psoriasis: number of subjects (through Week 56): 0 | Psychiatric disorders: % of subjects (through Week 56): (7.0%) | Psychiatric disorders: number of subjects (through Week 56): 3 | Pyrexia: number of subjects (through Week 56): 0 | Rash pruritic: number of subjects (through Week 56): 0 | Renal and urinary disorders: % of subjects (through Week 56): (4.7%) | Renal and urinary disorders: number of subjects (through Week 56): 2 | Renal mass: number of subjects (through Week 56): 0 | Respiratory, thoracic and mediastinal disorders: % of subjects (through Week 56): (9.3%)
